Source: patent publication US20260042764A1, “COMPOSITIONS AND METHODS FOR INHIBITION OF KRAS” (TheRas, Inc., priority 2022, published 2026)

Columns and labels:
[1] = system: GP2d cells (KRAS G12D); assay: Cell-based pERK HTRF assay in GP2d cell (Biological Example 2); conditions: GP2d (KRAS G12D) cells, pERK HTRF
How it was run: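 Phospho-ERK in lysed cells was detected by HTRF using Eu cryptate and d2 antibodies, read between 4 and 24 h at room temperature. Prior to lysis, KRAS G12D GP2d cells, seeded the day before in DMEM with 10% FBS, were exposed to compounds for 60 min. Compounds were tested as 9-point half-log curves from 1 μM or 100 nM top, with 0.25% DMSO.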

[2] = biological target: T1, Avi-KRAS G12R (1-169) GppNHp/RAF1 RBD-3xFLAG (52-151) (Homo sapiens, UniProt P01116, G12R); assay: Raf1-KRAS G12R-GppNHP disruption HTRF assay (Biological Example 1); format: binding
T1 construct: Avi-KRAS G12R (1-169)
T1 sequence (P01116 1-169 isoform P01116-2 G12R): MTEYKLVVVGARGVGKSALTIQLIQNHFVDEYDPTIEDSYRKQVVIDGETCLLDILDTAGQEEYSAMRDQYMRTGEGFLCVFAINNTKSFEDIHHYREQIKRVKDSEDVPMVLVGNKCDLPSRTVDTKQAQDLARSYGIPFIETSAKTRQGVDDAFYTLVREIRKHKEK
How it was run: (§1)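 Percent activity versus DMSO (100%) was derived from HTRF signal after KRAS–RAF1 RBD protein mix was incubated 1 h at room temperature with shaking and detection reagents were added for a further 1 h.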

[3] = biological target: T2, Avi-KRAS G12V (1-169) GppNHp/RAF1 RBD-3xFLAG (52-151) (Homo sapiens, UniProt P01116, G12V); assay: Raf1-KRAS G12V-GppNHP disruption HTRF assay (Biological Example 1); format: binding
T2 construct: Avi-KRAS G12V (1-169)
T2 sequence (P01116 1-169 isoform P01116-2 G12V): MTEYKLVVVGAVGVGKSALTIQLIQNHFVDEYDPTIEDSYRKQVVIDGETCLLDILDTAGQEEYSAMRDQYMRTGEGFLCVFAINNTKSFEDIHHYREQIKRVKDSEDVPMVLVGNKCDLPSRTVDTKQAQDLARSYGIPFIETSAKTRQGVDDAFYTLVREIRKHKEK
How it was run: as §1

[4] = biological target: T3, Avi-KRAS WT (1-169) GppNHp/RAF1 RBD-3xFLAG (52-151) (Homo sapiens, UniProt P01116); assay: Raf1-KRAS WT-GppNHP disruption HTRF assay (Biological Example 1); format: binding
T3 construct: Avi-KRAS WT (1-169)
T3 sequence (P01116 1-169 isoform P01116-2): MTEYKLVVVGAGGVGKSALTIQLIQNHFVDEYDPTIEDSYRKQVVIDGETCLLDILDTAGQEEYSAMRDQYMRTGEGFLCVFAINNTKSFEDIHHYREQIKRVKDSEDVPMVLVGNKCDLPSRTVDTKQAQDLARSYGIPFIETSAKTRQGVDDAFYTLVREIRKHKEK
How it was run: as §1

[5] = system: SW620 cells (KRAS G12V); assay: Cell-based pERK HTRF assay in SW620 cell (Biological Example 4); conditions: pERK HTRF
How it was run: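 Read-out: HTRF pERK signal (excitation 320 nm, emission 615 nm) from lysates of SW620 cells after 4 h compound exposure. Dose range was 9 points, half-log steps from 1 μM, in 0.25% DMSO; antibody incubation ran 4–24 h at room temperature.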

[6] = biological target: T4, Avi-KRAS G12D (1-169) GppNHp/RAF1 RBD-3xFLAG (52-151) (Homo sapiens, UniProt P01116, G12D); assay: Raf1-KRAS G12D-GppNHP disruption HTRF assay (Biological Example 1); format: binding
T4 construct: Avi-KRAS G12D (1-169)
T4 sequence (P01116 1-169 isoform P01116-2 G12D): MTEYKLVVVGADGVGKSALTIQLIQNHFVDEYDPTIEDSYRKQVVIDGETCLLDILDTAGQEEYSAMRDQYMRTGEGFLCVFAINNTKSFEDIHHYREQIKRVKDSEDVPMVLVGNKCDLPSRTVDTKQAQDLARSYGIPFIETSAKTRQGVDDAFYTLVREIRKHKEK
How it was run: as §1

[7] = KRAS G12R, GppNHp-loaded, Table 11
[8] = KRAS G12V, GppNHp-loaded, Table 11
[9] = KRAS WT, GppNHp-loaded, Table 11
[10] = Homo sapiens, SW-620, SW620 (KRAS G12V) cells
[11] = KRAS G12D, GppNHp-loaded, Table 11

SMILES	IC50 [1] [nM]	IC50 ([2]; KRAS G12R-GppNHp/RAF1 RBD HTRF) [nM]	IC50 ([3]; KRAS G12V-GppNHp/RAF1 RBD HTRF) [nM]	IC50 ([4]; KRAS WT-GppNHp/RAF1 RBD HTRF) [nM]	IC50 ([5]; SW620 (KRAS G12V) cells) [nM]	IC50 ([6]; KRAS G12D-GppNHp/RAF1 RBD HTRF) [nM]	IC50 ([1]; GP2d) [nM]	IC50 [2, 7] [nM]	IC50 [3, 8] [nM]	IC50 [4, 9] [nM]	IC50 [5, 10] [nM]	IC50 [6, 11] [nM]
N#Cc1c(N)sc2c(F)ccc(-c3c(C(F)(F)F)cc4c(N5C[C@H]6C[C@@H]5CO6)nc(OC[C@@]56CCCN5C[C@H](F)C6)nc4c3F)c12 (single isomer, unassigned) [Compound 288]	100 to 1000	> 10000	> 10000	> 10000	100 to 1000	> 10000	–	–	–	–	–	–
N#Cc1c(N)sc2c(F)ccc(-c3c(C(F)(F)F)cc4c(N5CCS(=O)(=O)CC5)nc(OC[C@@]56CCCN5C[C@H](F)C6)nc4c3F)c12 [Compound 91]	–	–	–	–	–	–	< 100	100 to 1000	100 to 1000	100 to 1000	< 100	100 to 1000
CC(=O)N1CC[C@@H](N(C)c2nc(OC[C@@]34CCCN3C[C@H](F)C4)nc3c(F)c(-c4ccc(F)c5sc(N)c(C#N)c45)c(C(F)(F)F)cc23)C1 [Compound 112]	–	–	–	–	–	–	< 100	100 to 1000	100 to 1000	100 to 1000	< 100	100 to 1000
N#Cc1c(N)sc2c(F)ccc(-c3c(C(F)(F)F)cc4c(N5CCOC6CC65)nc(OC[C@@]56CCCN5C[C@H](F)C6)nc4c3F)c12 (stereo partly drawn) [Compound 148]	–	–	–	–	–	–	< 100	100 to 1000	100 to 1000	100 to 1000	< 100	100 to 1000
CN(c1nc(OC[C@@]23CCCN2C[C@H](F)C3)nc2c(F)c(-c3ccc(F)c4sc(N)c(C#N)c34)c(C(F)(F)F)cc12)C1CC(F)(F)C1 [Compound 162]	–	–	–	–	–	–	< 100	100 to 1000	1000 to 10000	100 to 1000	< 100	100 to 1000
CN(CC(F)(F)F)c1nc(OC[C@@]23CCCN2C[C@H](F)C3)nc2c(F)c(-c3ccc(F)c4sc(N)c(C#N)c34)c(C(F)(F)F)cc12 [Compound 165]	–	–	–	–	–	–	< 100	100 to 1000	100 to 1000	100 to 1000	< 100	100 to 1000
COCCN(C)c1nc(OC[C@@]23CCCN2C[C@H](F)C3)nc2c(F)c(-c3ccc(F)c4sc(N)c(C#N)c34)c(C(F)(F)F)cc12 [Compound 167]	–	–	–	–	–	–	< 100	100 to 1000	100 to 1000	100 to 1000	< 100	100 to 1000
CC(=O)N1C[C@@H](F)[C@H](N(C)c2nc(OC[C@@]34CCCN3C[C@H](F)C4)nc3c(F)c(-c4ccc(F)c5sc(N)c(C#N)c45)c(C(F)(F)F)cc23)C1 [Compound 186]	–	–	–	–	–	–	< 100	100 to 1000	100 to 1000	100 to 1000	100 to 1000	100 to 1000
CC(=O)N1C[C@@H](N(C)c2nc(OC[C@@]34CCCN3C[C@H](F)C4)nc3c(F)c(-c4ccc(F)c5sc(N)c(C#N)c45)c(C(F)(F)F)cc23)[C@@H](F)C1 [Compound 187]	–	–	–	–	–	–	< 100	100 to 1000	100 to 1000	100 to 1000	< 100	< 100
CC(=O)N1CC[C@@H](N(C)c2nc(OC[C@@]34CCCN3C[C@H](F)C4)nc3c(F)c(-c4ccc(F)c5sc(N)c(C#N)c45)c(C(F)(F)F)cc23)[C@@H]1C [Compound 190, 4-(4-(((2S,3R)-1-acetyl-2-methylpyrrolidin-3-yl)(methyl)amino)-8-fluoro-2-(((2R,7aS)-2-fluorotetrahydro-1H-pyrrolizin-7a(5H)-yl)methoxy)-6-(trifluoromethyl)quinazolin-7-yl)-2-amino-7-fluorobenzo[b]thiophene-3-carbonitrile]	–	–	–	–	–	–	< 100	100 to 1000	100 to 1000	100 to 1000	100 to 1000	100 to 1000
C[C@H]1COC[C@H](C)N1c1nc(OC[C@@]23CCCN2C[C@H](F)C3)nc2c(F)c(-c3ccc(F)c4sc(N)c(C#N)c34)c(C(F)(F)F)cc12 [Compound 200]	–	–	–	–	–	–	< 100	1000 to 10000	1000 to 10000	1000 to 10000	100 to 1000	1000 to 10000
